Measured values: US4425435A, “Cholesterol oxidase and process for producing same” (Takara Shuzo Co., Ltd., priority 1980, dated 1984)

System: cholesterol oxidase
Experiment: Effect of inhibitors etc. on activity of the present enzymes
Assay type: biochemical, Basidiomycetes
Details: not given
Method: The enzymatic activity is determined by measurement of the hydrogen peroxide produced by the reaction of the enzyme solution on the substrate cholesterol. The method is based on the sequence of reactions as follows: Thus cholesterol is oxidized by cholesterol oxidase to cholest-5-en-3-one with the evolution of hydrogen peroxide, which couples with 4-aminoantipyrine and phenol in the presence of peroxidase to yield a quinoneimine dye with maximum absorption at 500 nm. To conduct this reaction there is used a reaction mixture, in a final volume of 3.0 ml, composed of 0.1 ml of the enzyme solution, 2 μmoles of cholesterol in 0.1 ml of ethanol, 250 μmoles of phosphate buffer, pH 7.0, 2.46 μmoles of 4-aminoantipyrine, 42 μmoles of phenol, and 24 units of peroxidase obtained from horseradish. The reaction is carried out at 37° C. for 10 minutes with shaking. One unit of cholesterol oxidase activity was defined as the amount of the enzyme which catalyzes the oxidation of 1 μmole of cholesterol per minute at 37° C.

Compound	inhibition of the enzyme activity	prevention of inhibition caused by Cu^2+ and Hg^2+
[Ba+2] [Ba^2+]	do not inhibit	
[Ca+2] [Ca^2+]	do not inhibit	
[Co+2] [Co^2+]	do not inhibit	
[Cu+2] [Cu^2+]	markedly inhibited	
O=C(O)CN(CCN(CC(=O)O)CC(=O)O)CC(=O)O [EDTA]	not inhibitory	
[Fe+2] [Fe^2+]	do not inhibit	
[Hg+2] [Hg^2+]	markedly inhibited	
[Mg+2] [Mg^2+]	do not inhibit	
[Mn+2] [Mn^2+]	do not inhibit	
[Ni+2] [Ni^2+]	do not inhibit	
N[C@@H](CCC(=O)N[C@@H](CS)C(=O)NCC(=O)O)C(=O)O [glutathione]		almost completely prevented
c1cnc2c(c1)ccc1cccnc12 [o-phenanthroline]	not inhibitory	
c1ccc(-c2ccccn2)nc1 [α,α'-dipyridyl]	not inhibitory	
Oc1cccc2cccnc12 [β-hydroxyquinoline]	not inhibitory	

Same assay, conditions: 0.01% of Triton X-100

Compound	inhibition of the enzyme activity by detergent
Triton X-100	inhibit almost completely

System: cholesterol oxidase
Experiment: Substrate specificity: hydrogen peroxide decomposed with peroxidase, chromogen colour
Assay type: biochemical, Basidiomycetes
Details: hydrogen peroxide liberated from dehydrogenation of the 3β-position

Compound	enzyme acts on the sterol (substrate specificity)
C[C@@H](O)[C@H]1CC[C@H]2[C@@H]3CC[C@H]4C[C@@H](O)CC[C@]4(C)[C@H]3CC[C@]12C [5α-pregnan-3β,20β-diol]	act on
CC(C)[C@H](C)CC[C@@H](C)[C@H]1CC[C@H]2[C@@H]3CC=C4C[C@@H](O)CC[C@]4(C)[C@H]3CC[C@]12C [campesterol]	act on
CC(C)CCC[C@@H](C)[C@H]1CC[C@H]2[C@@H]3CC=C4C[C@@H](O)CC[C@]4(C)[C@H]3CC[C@]12C [cholesterol]	act on
C[C@]12CC[C@H](O)CC1=CC[C@@H]1[C@@H]2CC[C@]2(C)C(=O)CC[C@@H]12 [dehydroepiandrosterone]	act on
CC(C)[C@@H](C)/C=C/[C@@H](C)[C@H]1CC[C@H]2C3=CC=C4C[C@@H](O)CC[C@]4(C)[C@H]3CC[C@]12C [ergosterol]	act on
CC(=O)[C@H]1CC[C@H]2[C@@H]3CC=C4C[C@@H](O)CC[C@]4(C)[C@H]3CC[C@]12C [pregnenolone]	act on
CC[C@H](/C=C/[C@@H](C)[C@H]1CC[C@H]2[C@@H]3CC=C4C[C@@H](O)CC[C@]4(C)[C@H]3CC[C@]12C)C(C)C [stigmasterol]	act on
CC(C)CCC[C@@H](C)[C@H]1CC[C@H]2[C@@H]3CC[C@H]4C[C@@H](O)CC[C@]4(C)[C@H]3CC[C@]12C [β-cholestanol]	act on
CC[C@H](CC[C@@H](C)[C@H]1CC[C@H]2[C@@H]3CC=C4C[C@@H](O)CC[C@]4(C)[C@H]3CC[C@]12C)C(C)C [β-cytosterol]	act on
